These results are taken from US9758527B2, “Cyclohexene derivative, preparation method therefor, and pharmaceutical composition for preventing or treating metabolic diseases, containing same as active ingredient” (HYUNDAI PHARM CO., LTD., priority 2014, dated 2017).

Assay [1] has as its system blood glucose level. Put plainly: Oral glucose tolerance test (OGTT) in high-fat diet model. It is filed as in vivo. The conditions noted are these: hypoglycemic level, 20 mg/kg oral, glucose 2 g/kg oral after 30 minutes; for inhibition in vivo at 20 mg/kg: Mus musculus, 2 h, read-out: % AUC. The procedure: To evaluate in vivo effective effects of the cyclohexene derivatives according to the present invention, experiments were carried out, as follows.
Specifically, male C57BL/6J (C57 black 6) […] (8 to 10 weeks old) in a high-fat diet model were acclimated for at least 7 days, and only healthy rat populations were selected and subjected to an oral glucose tolerance test (OGTT). The rats were fasted for 12 to 15 hours, and then randomly divided into groups with five rats per group. Thereafter, each of the compounds of Examples 1, 14, 48, 69, 80, 118, 139, 147, 148, 169, 190, 199, 200, 204, 227, and Comparative Examples 1 and 2 according to the present invention was administered to the rats at a dose of 20 mg/kg. In this case, a vehicle (0.5%, carboxymethyl cellulose (CMC)) was administered as an untreated group, and the dose of the compound administered together with the vehicle was orally administered at 10 ml/kg. After 30 minutes of administration, glucose (2 g/kg) was orally administered at a dose of 10 ml/kg. A blood glucose level was measured using an Accu-Chek Active Strip (Rosche Diagnostic Co.). In this case, the glucose level in blood collected via caudal venipuncture was measured at time points of −30, 0, 20, 40, 60, and 120 minutes after glucose administration.
In Table 3, the unit “% AUC (area under the curve)” represents a hypoglycemic level.

Assay [2] addresses T1, G protein-coupled receptor 119 (GPR-119) (Mesocricetus auratus, UniProt A0A1U8CD06).
T1 construct: hamster-derived β-cells containing G protein-coupled receptor 119 (GPR-119), HIT-T15 cells; host or cells: HIT-T15 (hamster pancreatic β-cells)
T1 sequence (A0A1U8CD06 1-334): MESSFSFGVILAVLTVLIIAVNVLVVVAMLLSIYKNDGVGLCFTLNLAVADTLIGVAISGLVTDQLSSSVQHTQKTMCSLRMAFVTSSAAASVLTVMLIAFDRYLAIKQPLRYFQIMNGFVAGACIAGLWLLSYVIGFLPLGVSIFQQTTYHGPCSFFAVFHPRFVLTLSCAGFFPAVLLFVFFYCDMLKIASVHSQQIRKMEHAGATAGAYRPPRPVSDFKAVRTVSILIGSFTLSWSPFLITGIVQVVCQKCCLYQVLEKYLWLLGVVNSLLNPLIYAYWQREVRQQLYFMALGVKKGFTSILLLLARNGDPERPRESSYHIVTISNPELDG
Put plainly: Evaluation of cAMP activity in HIT-T15 cells (HTRF cAMP dynamic kit). It counts as cell-based, hamster. Particulars: cAMP activation. Summed up: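 HIT-T15 cells, 60,000/well, treated next day with compound at six concentrations ([…]) for 1 h at 37° C. Lysate cAMP quantified by HTRF competitive immunoassay (D2-cAMP, cryptate anti-cAMP); activity taken as change in FRET signal relative to DMSO.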
For orientation: TR-FRET usually uses a lanthanide donor and a delayed reading to cut background.

A short description of assay [3]: Weight change in diet-induced obesity (DIO) rat model, 4-week administration. It is filed as in vivo, male Sprague Dawley (SD) rats. The conditions noted are these: DIO rats, oral, 4 weeks. The procedure: To simultaneously evaluate both the weight-loss and hypoglycemic effects of the cyclohexene derivative according to the present invention, experiments were carried out, as follows.
Specifically, male Sprague Dawley (SD) rats (approximately 4 weeks old) in a diet-induced obesity model were fed with a high-fat diet (Lab. Diet Co.) for approximately 10 weeks to induce high-fat diet-induced obesity (DIO). The rats undergoing the high-fat diet were randomly selected, and divided into groups (n=8) for respective administrations. The compounds of Comparative Examples 3 and 4 and Examples 48 and 119 were administered to the divided DIO rats each group for 4 weeks.
The weights of the DIO rats were measured twice a week during a period of administration of 4 weeks to record a change in the weights. At the end of the 4-week period of administration, a hypoglycemic effect was evaluated using an oral glucose tolerance test (OGTT), as follows.
FIG. 1 is a graph determining the changes in weights of rats after compounds of Example 48 and Comparative Examples 3 and 4 according to the present invention are administered to a diet-induced obesity (DIO) rat model for 4 weeks (In FIG. 1, the term “untreated group (Vehicle)” represents an untreated group in a high-fat DIO rat model; and the term “Lean” represents an untreated group in a normal SD rat model rather than a disease model).

The mark [4] stands for this setting: 1 h at 37° C., six concentrations, read-out: EC50.

The structures appear in SMILES notation. Counter-ions that a name gives are not always drawn. Like-named read-outs stand apart in the source and are kept apart here. Some results are limits rather than exact numbers.

Consider `CC(C)c1noc(C2CCN(c3ncnc(Nc4ccc(S(C)(=O)=O)cc4F)c3[N+](=O)[O-])CC2)n1` [Comparative Example 1, N-(2-fluoro-4-methylsulfonylphenyl)-5-nitro-6-[4-(3-propan-2-yl-1,2,4-oxadiazol-5-yl)piperidin-1-yl]pyrimidine-4-amine, reference compound], for which the inhibition in vivo at 20 mg/kg in assay [1] came out at 13.5%.
As usually defined, the EC50 is the midpoint of the concentration-response curve. Consider `CC(C)c1noc(N2CCC(COc3ccc(-c4ccc(S(C)(=O)=O)cc4)nc3)CC2)n1` [Comparative Example 2, 2-(4-methanesulfonylphenyl)-5-({1-[3-(propan-2-yl)-1,2,4-oxadiazol-5-yl]piperidin-4-yl}methoxy)pyridine, reference compound], for which the inhibition in vivo at 20 mg/kg in assay [1] was found to be 15.3%. Moreover, the EC50 in assay [2] (EC50 (nM), 1 h at 37° C., six concentrations) was found to be 49 nM.
On to `CN(C)C(=N)NC(=N)N` [Comparative Example 3, Metformin], for which the weight-loss effect result in assay [3] (300 mg/kg) is on record as “the weight rather increased after 2 weeks of the oral administration”.
On to `CC(C)CC(N(C)C)C1(c2ccc(Cl)cc2)CCC1` (stereo not drawn) [Comparative Example 4, Sibutramine], for which the weight-loss effect result in assay [3] (5 mg/kg) is listed as “the weight rather increased after 2 weeks of the oral administration”.
For `C[C@H](CO)NC(=O)C1CC=C(c2ccc(OCC3CCN(C(=O)OC(C)(C)C)CC3)cc2)CC1` (stereo partly drawn) [Example 1, tert-butyl 4-((4-(4-((R)-1-hydroxypropan-2-ylcarbamoyl)cyclohex-1-enyl)phenoxy)methyl)piperidine-1-carboxylate], in assay [1], the inhibition in vivo at 20 mg/kg came to 28.5%. For the same compound, the EC50 in assay [2] (setting [4]) amounted to 65 nM.
The corresponding values for `CC(C)(C)OC(=O)N1CCC(COc2ccc(C3=CCC(C(=O)NC(CO)CO)CC3)nc2)CC1` (stereo not drawn) [Example 14, tert-butyl 4-((6-(4-(1,3-dihydroxypropan-2-ylcarbamoyl)cyclohex-1-enyl)pyridin-3-yloxy)methyl)piperidine-1-carboxylate] are 21.9% and 650 nM.
On to `CC(C)(C)OC(=O)N1CCC(COc2ccc(C3=CCC(C(=O)N4CCOCC4)CC3)cc2F)CC1` (stereo not drawn) [Example 69, tert-butyl 4-((2-fluoro-4-(4-(morpholine-4-carbonyl)cyclohex-1-enyl)phenoxy)methyl)piperidine-1-carboxylate], for which the inhibition in vivo at 20 mg/kg in assay [1] worked out at 19.1%. Also, the EC50 is 7 nM in assay [2] (setting [4]) and at most 50 nM in assay [2] (read-out: EC50 value).
As to `CC(C)c1noc(N2CCC(COc3ccc(C4=CCC(C(=O)NC(CO)CO)CC4)cc3F)CC2)n1` (stereo not drawn) [Example 80, N-(1,3-dihydroxypropan-2-yl)-4-(3-fluoro-4-((1-(3-isopropyl-1,2,4-oxadiazol-5-yl)piperidin-4-yl)methoxy)phenyl)cyclohex-3-enecarboxamide], in assay [1], the inhibition in vivo at 20 mg/kg came out at 19.7%. For the same compound, the EC50 in assay [2] (setting [4]) turned out to be 89 nM.
For the compound `CCc1cnc(N2CCC(COc3ccc(C4=CCC(C(=O)N5CCC[C@@H]5CO)CC4)cc3)CC2)nc1` (stereo partly drawn) [Example 118, (4-(4-((1-(5-ethylpyrimidin-2-yl)piperidin-4-yl)methoxy)phenyl)cyclohex-3-enyl)((R)-2-(hydroxymethyl)pyrrolidin-1-yl)methanone], the inhibition in vivo at 20 mg/kg in assay [1] is 23.5%. The EC50 is 31 nM in assay [2] (setting [4]) and at most 50 nM in assay [2] (read-out: EC50 value).
As for `CC(C)c1noc(N2CCC(COc3ccc(C4=CCC(C(=O)NCC(=O)N5CCC[C@H]5C#N)CC4)cc3F)CC2)n1` (stereo partly drawn) [Example 139, N-(2-((S)-2-cyanopyrrolidin-1-yl)-2-oxoethyl)-4-(3-fluoro-4-((1-(3-isopropyl-1,2,4-oxadiazol-5-yl)piperidin-4-yl)methoxy)phenyl)cyclohex-3-enecarboxamide], the inhibition in vivo at 20 mg/kg in assay [1] was 25.4%. For the same compound, the EC50 in assay [2] (setting [4]) stood at 130 nM.
For `CC(C)c1noc(N2CCC(COc3ccc(C4=CCC(C(=O)N5CCC[C@@H]5CO)CC4)cc3)CC2)n1` (stereo partly drawn) [Example 147, ((R)-2-(hydroxymethyl)pyrrolidin-1-yl)(4-(4-((1-(3-isopropyl-1,2,4-oxadiazol-5-yl)piperidin-4-yl)methoxy)phenyl)cyclohex-3-enyl)methanone], the inhibition in vivo at 20 mg/kg in assay [1] was found to be 23.3%. Also, the EC50 was 6.9 nM in assay [2] (setting [4]) and at most 50 nM in assay [2] (read-out: EC50 value).
On the same counts, the results for `CC(C)c1noc(N2CCC(COc3ccc(C4=CCC(C(=O)N5CCC[C@H]5CO)CC4)cc3)CC2)n1` (stereo partly drawn) [Example 148, ((S)-2-(hydroxymethyl)pyrrolidin-1-yl)(4-(4-((1-(3-isopropyl-1,2,4-oxadiazol-5-yl)piperidin-4-yl)methoxy)phenyl)cyclohex-3-enyl)methanone] are 22.6%, 13 nM and at most 50 nM.
With `CCc1cnc(N2CCC(COc3ccc(C4=CCC(C(=O)N5CCC(CO)CC5)CC4)cc3)CC2)nc1` (stereo not drawn) [Example 169, (4-(4-((1-(5-ethylpyrimidin-2-yl)piperidin-4-yl)methoxy)phenyl)cyclohex-3-enyl)(4-(hydroxymethyl)piperidin-1-yl)methanone hydrochloride], the inhibition in vivo at 20 mg/kg in assay [1] is 21.7%. Moreover, the EC50 in assay [2] (setting [4]) worked out at 9 nM.
On to `CC(C)(C)OC(=O)N1CCC(COc2ccc(C3=CCC(C(=O)NCCO)CC3)cc2)CC1` (stereo not drawn) [Example 190, tert-butyl 4-((4-(4-(2-hydroxyethylcarbamoyl)cyclohex-1-enyl)phenoxy)methyl)piperidine-1-carboxylate], for which the “% AUC” value in assay [1] was determined as 20.9 % AUC.
With `CCN(CCO)C(=O)C1CC=C(c2ccc(OCC3CCN(C(=O)OC(C)(C)C)CC3)cc2)CC1` (stereo not drawn) [Example 199, tert-butyl 4-((4-(4-(ethyl(2-hydroxyethyl)carbamoyl)cyclohex-1-enyl)phenoxy)methyl)piperidine-1-carboxylate], in assay [1], the inhibition in vivo at 20 mg/kg came to 20.9%. For the same compound, the concentration giving a half-maximal response (EC50) in assay [2] (setting [4]) was 8 nM; in assay [2] (read-out: EC50 value), at most 50 nM.
Regarding `CC(C)(C)OC(=O)N1CCC(COc2ccc(C3=CCC(C(=O)N4CCC(CCO)CC4)CC3)cc2)CC1` (stereo not drawn) [Example 200, tert-butyl 4-((4-(4-(4-(2-hydroxyethyl)piperidine-1-carbonyl)cyclohex-1-enyl)phenoxy)methyl)piperidine-1-carboxylate], in assay [1], the inhibition in vivo at 20 mg/kg was 24%. Also, the EC50 in assay [2] (setting [4]) was 23 nM; in assay [2] (read-out: EC50 value), at most 50 nM.
The corresponding values for `CC(C)(C)OC(=O)N1CCC(COc2ccc(C3=CCC(C(=O)N4CCCCC4)CC3)cc2)CC1` (stereo not drawn) [Example 204, tert-butyl 4-((4-(4-(piperidine-1-carbonyl)cyclohex-1-enyl)phenoxy)methyl)piperidine-1-carboxylate] are 24%, 9 nM and at most 50 nM.
Turning to `CCc1cnc(N2CCC(COc3ccc(C4=CCC(C(=O)N5CCC(C#N)CC5)CC4)cc3)CC2)nc1` (stereo not drawn) [Example 227, 1-(4-(4-((1-(5-ethylpyrimidin-2-yl)piperidin-4-yl)methoxy)phenyl)cyclohex-3-enecarbonyl)piperidine-4-carbonitrile], the inhibition in vivo at 20 mg/kg in assay [1] came to 26.8%. Besides, the EC50 in assay [2] (setting [4]) is 6 nM; in assay [2] (read-out: EC50 value), at most 50 nM.
Regarding `CCc1cnc(N2CCC(COc3ccc(C4=CCC(C(=O)N5CCC(=NO)CC5)CC4)cc3)CC2)nc1` (stereo not drawn) [Example 277, (4-(4-((1-(5-ethylpyrimidin-2-yl)piperidin-4-yl)methoxy)phenyl)cyclohex-3-enyl)(4-(hydroxyimino)piperidin-1-yl)methanone], in assay [1], the “% AUC” value was 19.8 % AUC. Moreover, the EC50 in assay [2] (setting [4]) worked out at 20 nM.
